{
  "source": "patent US8338624B2",
  "about": "“Isoflavone derivatives and uses thereof” (Yeda Research and Development Co., Ltd., priority 2007, dated 2012)",
  "key": {"[1]": {"system": "T47D mammary cancer cells", "assay": "DNA synthesis by [3H]-thymidine incorporation, T47D cells", "assay_type": "cell-based, human", "details": "Homo sapiens", "method": "(§1) Cells were cultured in MEM supplemented with 10% FCS and antibiotics. Cells were grown to subconfluence and then treated with various hormones or agents as described by Somjen et al. (Somjen et al., 1998). The cells were characterized in terms of expression of mRNAs for estrogen […] by real time PCR, and the results are summarized in Table 1. N87, 320DM and H295R cells expressed mRNAs for both ERs. The ratio of ERα to ERβ was 1:8.5, 1:30 and 1:1.8 in N87, 320DM and H295R cells, respectively. Ovarian A2780 and prostate C4-24 cells expressed mainly mRNA for ERβ, and the ratio of ERβ to ERα was 300:1 and 70:1, respectively. MLS ovarian cells expressed mRNA only for ERβ. The ratio of ERα to ERβ in T47D cells has been reported to be 9:1.\n(§2) [^3H]-Thymidine incorporation into DNA was used for the assessment of the various effects (proliferative or inhibitory) of various isoflavones, isoflavone derivatives and known cytotoxic drugs in the above-mentioned cells. Cells were grown until subconfluence using conditions described in Somjen et al. (Somjen et al., 1998) and then treated with various agents for 24 or 48 h as indicated. At the end of incubation, [^3H]-thymidine was added for two hours. Cells were then treated with 10% ice-cold trichloroacetic (TCA) for 5 min and washed twice with 5% TCA and then with cold ethanol. The cellular layer was dissolved in 0.3 ml of 0.3 M NaOH, aliquots were taken for counting radioactivity, and [^3H]-thymidine incorporation into DNA was calculated."}, "[2]": {"system": "A2780 ovarian cancer cells", "assay": "DNA synthesis by [3H]-thymidine incorporation, A2780 cells", "assay_type": "cell-based, human", "method": "as §1, §2"}, "[3]": {"system": "H295R adrenocarcinoma cells", "assay": "DNA synthesis by [3H]-thymidine incorporation, H295R cells", "assay_type": "cell-based, human", "method": "as §1, §2"}, "[4]": {"system": "human prostate C4-2B cancer cells", "assay": "DNA synthesis by [3H]-thymidine incorporation, C4-2B cells", "assay_type": "cell-based", "method": "as §1, §2"}, "320DM colon xenografts": {"system": "320DM colon xenografts", "assay": "320DM colon xenografts in nude mice", "assay_type": "in vivo", "details": "320DM xenografts, 8 ip daily 230 μg, 9 injections within 11 days", "source_text": "Female CD1 nude mice (8-week old, ˜30 g) were housed and handled with free access to food and water in the animal facility according to the guidelines (1996) of the Institutional Animal Care and Use Committee of the Weizmann Institute of Science, Rehovot, Israel.\nThirty female CD-1 nude mice were inoculated sc with 2×10^6 320DM human colon cancer cells. Two weeks later, 13 mice that developed palpable tumors were divided into two groups: control (5 mice) and treatment (8 mice). Each mouse of the treatment group received daily intra-peritoneal (ip) injections of compound 8 (230 μg in 70 μl of propylene glycol:PBS (20:80)) and the control mice received only propylene glycol:PBS. Each treated mouse received 9 injections within 11 days. The tumors were measured with calipers every other day during 12 days in two dimensions, length (a) and width (b), and tumor area was calculated using the formula: r^2×3.14, where r=a/2+b/2/2. The tumor area on Day 0 was taken as 100%."}, "[5]": {"system": "Human umbilical vascular smooth muscle cells (VSMC)", "assay": "DNA synthesis by [3H]-thymidine incorporation, normal VSMC", "assay_type": "cell-based", "details": "compound at 3 μM", "method": "Human umbilical vascular smooth muscle cells (VSMC) sensitive to estrogen, were grown in culture as described above, and used only at passages 1-3, when expression of smooth muscle actin was clearly demonstrable (Somjen et al. 2000). The ratio of the expression of mRNA for ERα to ERβ was 2.7:1.\nas §2"}, "[6]": {"system": "320DM human colon cancer cells", "assay": "DNA synthesis by [3H]-thymidine incorporation, 320DM cells", "assay_type": "cell-based", "method": "as §1\nas §2, with “(Somjen et al., 1998) and then treated with various agents for 24 or 48 h as indicated.” left out"}},
  "data": [
    {"compound": "CC(C)(C)OC(=O)NCCCCCCNC(=O)CCCc1oc2cc(O)cc(O)c2c(=O)c1-c1ccc(O)cc1", "note": "[Compound 8, 2-[3-[N-[6-(tert-Butoxycarbonyl)-aminohexyl]]-caboxamidopropyl]-5,7,4′-trihydroxyisoflavone]", "values": [
      {"measurement": "inhibition at 10 µM", "setting": "[1]", "result": "24 to 40", "unit": "%"},
      {"measurement": "effect on DNA synthesis", "setting": "[2]; at 3 μM", "result": "had no effect"},
      {"measurement": "DNA synthesis, ratio experimental/control (E/C)", "setting": "[2]; compound at 3 μM", "result": "1.12 ± 0.19"},
      {"measurement": "inhibition at 3 µM", "setting": "[3]; Homo sapiens, NCI-H295R, at 3 μM, read-out: inhibition of DNA synthesis / growth", "result": "40 to 45", "unit": "%"},
      {"measurement": "DNA synthesis, ratio experimental/control (E/C)", "setting": "[3]; compound at 3 μM", "result": "0.6 ± 0.14"},
      {"measurement": "inhibition of DNA synthesis", "setting": "[4]; at 30 nM and 300 nM", "result": "10-15%"},
      {"measurement": "DNA synthesis, ratio experimental/control (E/C)", "setting": "[4]; compound at 0.3 μM", "result": "0.75 ± 0.07"},
      {"measurement": "effect on growth of tumors", "setting": "320DM colon xenografts", "result": "slowed down the growth of the tumors"},
      {"measurement": "DNA synthesis, ratio experimental/control (E/C)", "setting": "[5]", "result": "0.78 ± 0.1"},
      {"measurement": "effect on DNA synthesis / growth", "setting": "[6]; 30 to 3000 nM", "result": "significant growth inhibitory effect"},
      {"measurement": "DNA synthesis, ratio experimental/control (E/C)", "setting": "[6]; compound at 3 μM", "result": "0.2 ± 0.09"}
    ]}
  ]
}
